# Test results published in PubChem BioAssay AID1963852 (Molecular Pharmacology Branch, DTP, NCI, 2024).
# Test system: 282377-053-R-J1-PDC complex spheroid viability
# Test: Anticancer human tumor 282377-053-R-J1-PDC patient-derived colon adenocarcinoma cell line growth inhibition [POLQ]
# Conditions: for IC50: curve of first compound; for viability, T/C: stronger effect = lower value
# Procedure, shortened: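 Three-cell-type spheroids modelling solid tumor plus stroma served as the readout system; POL inhibitors were tested individually and in combination, concentration ranges set by clinical Cmax where known.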
# [1] = second compound 0.0316 µM, first compound 0.0316 µM
# [2] = second compound 0.0316 µM, first compound 0.1 µM
# [3] = second compound 0.0316 µM, first compound 0.316 µM
# [4] = second compound 0.0316 µM, first compound 1 µM
# [5] = second compound 0.0316 µM, first compound 3.16 µM
# [6] = second compound 0.0316 µM, first compound 10 µM
# [7] = second compound 0.1 µM, first compound 0.0316 µM
# [8] = second compound 0.1 µM, first compound 0.1 µM
# [9] = second compound 0.1 µM, first compound 0.316 µM
# [10] = second compound 0.1 µM, first compound 1 µM
# [11] = second compound 0.1 µM, first compound 3.16 µM
# [12] = second compound 0.1 µM, first compound 10 µM
# [13] = second compound 0.316 µM, first compound 0.0316 µM
# [14] = second compound 0.316 µM, first compound 0.1 µM
# [15] = second compound 0.316 µM, first compound 0.316 µM
# [16] = second compound 0.316 µM, first compound 1 µM
# [17] = second compound 0.316 µM, first compound 3.16 µM
# [18] = second compound 0.316 µM, first compound 10 µM
# [19] = second compound 1 µM, first compound 0.0316 µM
# [20] = second compound 1 µM, first compound 0.1 µM
# [21] = second compound 1 µM, first compound 0.316 µM
# [22] = second compound 1 µM, first compound 1 µM
# [23] = second compound 1 µM, first compound 3.16 µM
# [24] = second compound 1 µM, first compound 10 µM
# [25] = second compound 3.16 µM, first compound 0.0316 µM
# [26] = second compound 3.16 µM, first compound 0.1 µM
# [27] = second compound 3.16 µM, first compound 0.316 µM
# [28] = second compound 3.16 µM, first compound 1 µM
# [29] = second compound 3.16 µM, first compound 3.16 µM
# [30] = second compound 3.16 µM, first compound 10 µM
# [31] = second compound 10 µM, first compound 0.0316 µM
# [32] = second compound 10 µM, first compound 0.1 µM
# [33] = second compound 10 µM, first compound 0.316 µM
# [34] = second compound 10 µM, first compound 1 µM
# [35] = second compound 10 µM, first compound 3.16 µM
# [36] = second compound 10 µM, first compound 10 µM
# 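Note: spheroids exposed to compounds for seven days.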
# 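Throughout, for viability, T/C: 100% = DMSO vehicle control viability.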
structure (smiles),measurement,setting,value
CC(C)n1c(=O)n(C)c2cnc3cc(F)c(-c4ccc(OCCCN5CCCCC5)nc4)cc3c21 + Cc1cccc(N(C)C(=O)C2C(O)CCN2c2nc(C)cc(C(F)(F)F)c2C#N)c1,IC50,second compound 0.0316 µM,> 10 µM
same,IC50,second compound 0.1 µM,> 10 µM
same,IC50,second compound 0.316 µM,> 10 µM
same,IC50,second compound 1 µM,> 10 µM
same,IC50,second compound 3.16 µM,> 10 µM
same,IC50,second compound 10 µM,> 10 µM
same,"viability, T/C",[1],97.8%
same,"viability, T/C",[2],129%
same,"viability, T/C",[3],99%
same,"viability, T/C",[4],114%
same,"viability, T/C",[5],109%
same,"viability, T/C",[6],88.3%
same,"viability, T/C",[7],95.2%
same,"viability, T/C",[8],123%
same,"viability, T/C",[9],98.2%
same,"viability, T/C",[10],97.5%
same,"viability, T/C",[11],129%
same,"viability, T/C",[12],84.8%
same,"viability, T/C",[13],99.6%
same,"viability, T/C",[14],92.3%
same,"viability, T/C",[15],96%
same,"viability, T/C",[16],89.5%
same,"viability, T/C",[17],99.1%
same,"viability, T/C",[18],73.8%
same,"viability, T/C",[19],105%
same,"viability, T/C",[20],99.8%
same,"viability, T/C",[21],97.7%
same,"viability, T/C",[22],105%
same,"viability, T/C",[23],106%
same,"viability, T/C",[24],93.2%
same,"viability, T/C",[25],81.5%
same,"viability, T/C",[26],102%
same,"viability, T/C",[27],96.4%
same,"viability, T/C",[28],98.9%
same,"viability, T/C",[29],97.1%
same,"viability, T/C",[30],92.7%
same,"viability, T/C",[31],93.2%
same,"viability, T/C",[32],87.3%
same,"viability, T/C",[33],110%
same,"viability, T/C",[34],81.9%
same,"viability, T/C",[35],120%
same,"viability, T/C",[36],82.1%
CC1COCCN1c1cc(C2(S(C)(=N)=O)CC2)nc(-c2ccnc3[nH]ccc23)n1 (stereo not drawn) + Cc1cccc(N(C)C(=O)C2C(O)CCN2c2nc(C)cc(C(F)(F)F)c2C#N)c1,IC50,second compound 0.0316 µM,7.38 µM
same,IC50,second compound 0.1 µM,> 10 µM
same,IC50,second compound 0.316 µM,> 10 µM
same,IC50,second compound 1 µM,> 10 µM
same,IC50,second compound 3.16 µM,> 10 µM
same,IC50,second compound 10 µM,5.13 µM
same,"viability, T/C",[1],113%
same,"viability, T/C",[2],81.7%
same,"viability, T/C",[3],108%
same,"viability, T/C",[4],77.6%
same,"viability, T/C",[5],66%
same,"viability, T/C",[6],44%
same,"viability, T/C",[7],98.3%
same,"viability, T/C",[8],103%
same,"viability, T/C",[9],77.5%
same,"viability, T/C",[10],84.4%
same,"viability, T/C",[11],71.8%
same,"viability, T/C",[12],54.3%
same,"viability, T/C",[13],91.3%
same,"viability, T/C",[14],101%
same,"viability, T/C",[15],80.8%
same,"viability, T/C",[16],89.5%
same,"viability, T/C",[17],98.2%
same,"viability, T/C",[18],50.2%
same,"viability, T/C",[19],107%
same,"viability, T/C",[20],111%
same,"viability, T/C",[21],83.6%
same,"viability, T/C",[22],86.1%
same,"viability, T/C",[23],69.5%
same,"viability, T/C",[24],52.5%
same,"viability, T/C",[25],93%
same,"viability, T/C",[26],84.4%
same,"viability, T/C",[27],123%
same,"viability, T/C",[28],114%
same,"viability, T/C",[29],64.9%
same,"viability, T/C",[30],49.7%
same,"viability, T/C",[31],90.6%
same,"viability, T/C",[32],73.6%
same,"viability, T/C",[33],89.1%
same,"viability, T/C",[34],80.2%
same,"viability, T/C",[35],55.4%
same,"viability, T/C",[36],42.7%
C=CCn1c(=O)c2cnc(Nc3ccc(N4CCN(C)CC4)cc3)nc2n1-c1cccc(C(C)(C)O)n1 + Nc1ccc(C#CCN(C(=O)Cc2ncc(C(F)(F)F)cc2C(F)(F)F)c2ccc(F)cc2)nn1,IC50,second compound 0.0316 µM,> 1 µM
same,IC50,second compound 0.1 µM,> 1 µM
same,IC50,second compound 0.316 µM,> 1 µM
same,IC50,second compound 1 µM,> 1 µM
same,IC50,second compound 3.16 µM,> 1 µM
same,IC50,second compound 10 µM,> 1 µM
same,"viability, T/C","second compound 0.0316 µM, first compound 0.00316 µM",122%
same,"viability, T/C","second compound 0.0316 µM, first compound 0.01 µM",102%
same,"viability, T/C",[1],99.1%
same,"viability, T/C",[2],98.3%
same,"viability, T/C",[3],81.8%
same,"viability, T/C",[4],69%
same,"viability, T/C","second compound 0.1 µM, first compound 0.00316 µM",96.3%
same,"viability, T/C","second compound 0.1 µM, first compound 0.01 µM",110%
same,"viability, T/C",[7],89.4%
same,"viability, T/C",[8],107%
same,"viability, T/C",[9],90.7%
same,"viability, T/C",[10],70.1%
same,"viability, T/C","second compound 0.316 µM, first compound 0.00316 µM",102%
same,"viability, T/C","second compound 0.316 µM, first compound 0.01 µM",96.9%
same,"viability, T/C",[13],99.2%
same,"viability, T/C",[14],86.1%
same,"viability, T/C",[15],91.8%
same,"viability, T/C",[16],61.4%
same,"viability, T/C","second compound 1 µM, first compound 0.00316 µM",106%
same,"viability, T/C","second compound 1 µM, first compound 0.01 µM",91.8%
same,"viability, T/C",[19],79.9%
same,"viability, T/C",[20],86.2%
same,"viability, T/C",[21],93.8%
same,"viability, T/C",[22],67.6%
same,"viability, T/C","second compound 3.16 µM, first compound 0.00316 µM",117%
same,"viability, T/C","second compound 3.16 µM, first compound 0.01 µM",110%
same,"viability, T/C",[25],93.8%
same,"viability, T/C",[26],102%
same,"viability, T/C",[27],85.3%
same,"viability, T/C",[28],84.6%
same,"viability, T/C","second compound 10 µM, first compound 0.00316 µM",117%
same,"viability, T/C","second compound 10 µM, first compound 0.01 µM",100%
same,"viability, T/C",[31],96.7%
same,"viability, T/C",[32],94.7%
same,"viability, T/C",[33],100%
same,"viability, T/C",[34],78.2%
COc1cc(C2c3cc4c(cc3C(OC3OC5COC(C)OC5C(O)C3O)C3COC(=O)C23)OCO4)cc(OC)c1O (stereo not drawn) + Nc1ccc(C#CCN(C(=O)Cc2ncc(C(F)(F)F)cc2C(F)(F)F)c2ccc(F)cc2)nn1,IC50,second compound 0.0316 µM,> 10 µM
same,IC50,second compound 0.1 µM,> 10 µM
same,IC50,second compound 0.316 µM,> 10 µM
same,IC50,second compound 1 µM,> 10 µM
same,IC50,second compound 3.16 µM,> 10 µM
same,IC50,second compound 10 µM,> 10 µM
same,"viability, T/C",[1],113%
same,"viability, T/C",[2],88.9%
same,"viability, T/C",[3],116%
same,"viability, T/C",[4],114%
same,"viability, T/C",[5],109%
same,"viability, T/C",[6],108%
same,"viability, T/C",[7],100%
same,"viability, T/C",[8],97.8%
same,"viability, T/C",[9],83.5%
same,"viability, T/C",[10],94.3%
same,"viability, T/C",[11],98%
same,"viability, T/C",[12],87.3%
same,"viability, T/C",[13],93.1%
same,"viability, T/C",[14],99.3%
same,"viability, T/C",[15],75.8%
same,"viability, T/C",[16],99.7%
same,"viability, T/C",[17],96.6%
same,"viability, T/C",[18],93.5%
same,"viability, T/C",[19],88.6%
same,"viability, T/C",[20],98.6%
same,"viability, T/C",[21],107%
same,"viability, T/C",[22],121%
same,"viability, T/C",[23],113%
same,"viability, T/C",[24],83%
same,"viability, T/C",[25],118%
same,"viability, T/C",[26],102%
same,"viability, T/C",[27],119%
same,"viability, T/C",[28],127%
same,"viability, T/C",[29],92.5%
same,"viability, T/C",[30],91.9%
same,"viability, T/C",[31],107%
same,"viability, T/C",[32],122%
same,"viability, T/C",[33],139%
same,"viability, T/C",[34],146%
same,"viability, T/C",[35],115%
same,"viability, T/C",[36],106%
